Measurements from patent publication US12076304B2, “Compositions comprising 15-HEPE and methods of treating or preventing hematologic disorders, and/or related diseases” (priority 2020, dated 2024).
Entries after “also recorded” stand apart in the source; their conditions may differ.

Columns and labels:
TGF-β mRNA = assay: BDL mice liver quantitative RT-PCR, TGF-β; format: in vivo; conditions: for TGF-β relative mRNA expression level: BDL mice liver, normalized to 36B4, Sham 1.00, mean ± SD
Description: (§1) Quantitative RT-PCR: Total ribonucleic acid (RNA) was extracted from liver samples using RNAiso (Takara Bio, Japan) according to the manufacturer's instructions. One μg of RNA was reverse-transcribed using a reaction mixture containing 4.4 mM magnesium chloride (MgCl2) (F. Hoffmann-La Roche, Switzerland), 40 U RNase inhibitor (Toyobo, Japan), 0.5 mM dNTP (Promega, USA), 6.28 μM random hexamer (Promega), 5× first strand buffer (Promega), 10 mM dithiothreitol (Invitrogen, USA) and 200 U MMLV-RT (Invitrogen) in a final volume of 20 μL. The reaction was carried out for 1 hour at 37° C., followed by 5 minutes at 99° C. Real-time PCR was performed using real-time PCR DICE and TB Green™ Premix Ex Taq™ II (Takara Bio). To calculate the relative mRNA expression level, the expression of each gene (α-SMA, TIMP-1, TGF-β and Collagen Type 1) was normalized to that of reference gene 36B4 (gene symbol: Rplp0). Information regarding the PCR-primer sets and the plate layout are described in Tables 8 and 9.

[1] = system: cholestasis induced by BDL; assay: BDL mice: serum biochemistry (ALT, total bilirubin); format: in vivo; conditions: for Serum ALT / Serum Total Bilirubin: n = 8
Description: Sample Collection: For serum samples, non-fasting blood was collected in serum separate tubes without anticoagulant through direct cardiac puncture and centrifuged at 3,500×g for 4 minutes at 4° C. The supernatant was collected and stored at −80° C. for biochemistry (30 μL) and shipping (all the remaining). For liver samples, left lateral lobe was collected and cut into 6 pieces. Two pieces of left lateral lobe were fixed in Bouin's solution and then embedded in paraffin. Samples were stored at room temperature for histological analysis. The other 2 pieces of left lateral lobe were embedded in O.C.T. compound and quick frozen in liquid nitrogen. Samples were stored at −80° C. The remaining pieces of left lateral lobe was snap frozen in liquid nitrogen and stored at −80° C. for gene expression analyses. Right medial lobe, left medial lobe, right lobe and caudate lobe were snap frozen in liquid nitrogen and stored at −80° C. for shipping.

Collagen Type 1 mRNA [2] = assay: BDL mice liver quantitative RT-PCR, Collagen Type 1; format: in vivo; conditions: for Collagen Type 1 relative mRNA expression level: BDL mice liver, normalized to 36B4, Sham 1.00, mean ± SD
Description: as §1

Collagen Type 1 mRNA [3] = assay: UUO mice kidney quantitative RT-PCR, Collagen Type 1; format: in vivo
Description: as §1, with “from kidney” for “from liver”, “[…] (mM) of” for “4.4 mM”, “relative […] (mRNA)” for “relative mRNA”, “gene (e.g., α-SMA,” for “gene (α-SMA,”, “Tables 1” for “Tables 8”, “and 2.” for “and 9.”

NAFLD patients [4] = assay: Phase IIa study in NAFLD patients: lipid profile and lipidomics; format: in vivo, human; conditions: for Triglycerides (median placebo-corrected % change from baseline): 2 g
Description: (§2) The study was planned to include 96 evaluable patients with 32 patients randomized per treatment group.
Clinical Laboratory Safety Tests: Safety tests were performed for hematology, serum biochemistry, coagulation, lipid profile, and urinalysis: Blood and urine samples were taken as per the Study Flow Chart in Table 19 for routine hematology, serum biochemistry, coagulation and urinalysis tests, along with a Lipid Profile. All samples were analyzed in the central laboratory. All subjects were fasted for a minimum of 8 hours prior to blood sampling. If subjects had not fasted for a minimum of 8 hours, the duration of fasting time was recorded, and subjects encouraged to fast appropriately for the next clinical visit. • Hematology: Full blood count to include red cell count, hemoglobin, hematocrit, white cell count, differential white cell count, platelet count and reticulocyte count. • Serum biochemistry: Urea (blood urea nitrogen; BUN), creatinine, uric acid, total bilirubin, Indirect and Direct Bilirubin, sodium, bicarbonate potassium, phosphorus, calcium chloride, alkaline phosphatase (ALP), aspartate aminotransferase (AST), alanine aminotransferase (ALT), ALT/AST ratio, lactate dehydrogenase (LDH), creatine phosphokinase (CPK), albumin, total protein, cholesterol, triglycerides, glucose, C-reactive protein (CRP). • Coagulation: prothrombin time (PT), international normalized ratio (INR) and activated partial […]. • Lipid Profile: LDL, HDL, and VLDL-C. • Urinalysis: pH, protein, glucose, blood, ketones, leukocytes, leukocyte esterase, bilirubin, specific gravity, urobilinogen and nitrate. Reflex micro if blood, protein, leukocyte esterase or nitrate/nitrite are present.
Exploratory analysis: The exploratory analysis included analysis of lipid and metabolic parameters including total cholesterol, triglycerides, very low-density lipoprotein cholesterol (VLDL-C), low density lipoprotein cholesterol (LDL-C), high density lipoprotein cholesterol (HDL-C), non-high-density lipoprotein cholesterol (non-HDL-C), remnant-like particle cholesterol (RLP-C), fasting glucose, insulin, free fatty acids and hemoglobin A1C (HbA1C). Additional exploratory analysis included high throughput lipidomics and proteomics.

NAFLD patients [5] = assay: Phase IIa study in NAFLD patients: adverse events; format: in vivo, human
From the text: as §2

[6] = BDL mice, DS102 treatment groups as a whole
[7] = 50 mg/kg PO QD Day 0-13, Day 14, mean ± SD
[8] = 250 mg/kg PO QD Day 0-13, Day 14, mean ± SD
[9] = 500 mg/kg PO QD Day 0-13, Day 14, mean ± SD
[10] = 50 mg/kg PO QD Day 0-13, normalized to 36B4, Sham 1.00, mean ± SD

Compound: 15-HEPE [DS102]
- TGF-β relative mRNA expression level (TGF-β mRNA; 50 mg/kg PO QD Day 0-13): 1.48 ± 0.48
- TGF-β relative mRNA expression level (TGF-β mRNA; 250 mg/kg PO QD Day 0-13): 1.50 ± 0.44
- TGF-β relative mRNA expression level (TGF-β mRNA; 500 mg/kg PO QD Day 0-13): 1.00 ± 0.23
- TGF-β mRNA expression level compared with the Vehicle group (TGF-β mRNA; BDL mice, 500 mg/kg PO QD Day 0-13): significant decrease
- TGF-β mRNA expression level, Vehicle group vs the DS102 treatment groups (TGF-β mRNA; [6]): no significant differences
- Serum ALT [1, 7]: 402 ± 112 U/L
- Serum Total Bilirubin [1, 7]: 26.8 ± 6.9 mg/dL
- Serum ALT [1, 8]: 351 ± 155 U/L
- Serum Total Bilirubin [1, 8]: 23.5 ± 9.8 mg/dL
- Serum ALT [1, 9]: 383 ± 147 U/L
- Serum Total Bilirubin [1, 9]: 26.2 ± 6.1 mg/dL
- serum ALT level vs Vehicle group ([1]; 50, 250 and 500 mg/kg PO QD): no significant differences
- serum total bilirubin level vs Vehicle group ([1]; 50, 250 and 500 mg/kg PO QD): no significant differences
- Collagen Type 1 relative mRNA expression level (Collagen Type 1 mRNA [2]; 50 mg/kg PO QD Day 0-13): 4.94 ± 2.76
- Collagen Type 1 relative mRNA expression level (Collagen Type 1 mRNA [2]; 250 mg/kg PO QD Day 0-13): 4.21 ± 1.90
- Collagen Type 1 relative mRNA expression level (Collagen Type 1 mRNA [2]; 500 mg/kg PO QD Day 0-13): 2.51 ± 1.39
- Collagen Type 1 mRNA expression level compared with the Vehicle group (Collagen Type 1 mRNA [2]; BDL mice, 500 mg/kg PO QD Day 0-13, 500 mg/kg): tended to decrease; also recorded: trend approaching significance
- Collagen Type 1 mRNA expression level, Vehicle group vs the DS102 treatment groups (Collagen Type 1 mRNA [2]; [6]): no significant differences
- Collagen Type 1 relative mRNA expression level (Collagen Type 1 mRNA [3]; [10]): 11.80 ± 1.78
- Collagen Type 1 relative mRNA expression level (Collagen Type 1 mRNA [3]; 500 mg/kg PO QD Day 0-13, normalized to 36B4, Sham 1.00, mean ± SD): 14.09 ± 2.88
- Triglycerides (median placebo-corrected % change from baseline) (NAFLD patients [4]; Week 16, Full Analysis Set): −40.2%
- Triglycerides (median placebo-corrected % change from baseline) (NAFLD patients [4]; Week 16, Subgroup: High Triglycerides (>200 mg/dL)): −20.4%
- Triglycerides (median placebo-corrected % change from baseline) (NAFLD patients [4]; Week 16, Subgroup: Triglycerides > Upper Limit Normal (>150 mg/dL)): −39.0%
- levels of multiple glycerophospholipid groups (NAFLD patients [4]; NAFLD patients, 2 g per day): significantly increased
- levels of multiple hepatotoxic diglycerides (NAFLD patients [4]; NAFLD patients, 2 g per day): significantly decreased
- triglyceride levels (NAFLD patients [4]; NAFLD patients, Week 16): lowered
- lipid profile (total cholesterol, VLDL-C, non-HDL-C, RLP cholesterol, triglycerides) (NAFLD patients [4]; NAFLD patients, Week 16, safety analysis set): significantly improved
- Death, patients n (NAFLD patients [5]; 1 g (n = 32)): 0
- Patients with ≥1 AE related to study drug, % (NAFLD patients [5]; 1 g (n = 32)): (6.3) %
- Patients with ≥1 AE, % (NAFLD patients [5]; 1 g (n = 32)): (59.4) %
- Death, patients n (NAFLD patients [5]; 2 g (n = 30)): 0
- Patients with ≥1 AE related to study drug, % (NAFLD patients [5]; 2 g (n = 30)): (10.0) %
- Patients with ≥1 AE, % (NAFLD patients [5]; 2 g (n = 30)): (50.0) %
- Patients with ≥1 SAE, % (NAFLD patients [5]; 2 g (n = 30)): (3.3) %
- drug related serious adverse events (SAEs) (NAFLD patients [5]; NAFLD patients, 1 g or 2 g per day, 16 weeks): no drug related serious adverse events
- safety and tolerance (NAFLD patients [5]; NAFLD patients, 1 g or 2 g per day, 16 weeks, compared to placebo): safe and well tolerated

Compound: CCCCCC(O)/C=C/C=C\C/C=C\CCCCCCC(=O)O (stereo not drawn) [DS109, 15-HETrE]
- Collagen Type 1 relative mRNA expression level (Collagen Type 1 mRNA [3]; 5 mg/kg PO QD Day 0-13, normalized to 36B4, Sham 1.00, mean ± SD): 10.76 ± 1.45
- Collagen Type 1 relative mRNA expression level (Collagen Type 1 mRNA [3]; [10]): 15.23 ± 11.52
- Collagen Type 1 relative mRNA expression level (Collagen Type 1 mRNA [3]; 250 mg/kg PO QD Day 0-13, normalized to 36B4, Sham 1.00, mean ± SD): 13.88 ± 1.91
